The test system of assay [1] is Beet Armyworm (Spodoptera exigua, LAPHEG). Put plainly: Bioassay on Beet Armyworm (BAW), 128-well diet tray assay. The assay is classed as in vivo. Put shortly: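 Percent mortality, averaged across eight replicate wells, was scored after five to seven days at 25° C. under a 14:10 light-dark cycle. Each well's diet carried 50 μg/cm^2 of the dried test molecule and held one to five second instar larvae.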

For assay [2], the system named is Cabbage Looper (Trichoplusia ni, TRIPNI). Put plainly: Bioassay on Cabbage Looper (CL), 128-well diet tray assay. The assay is classed as in vivo. The settings on record: Trichoplusia ni. Put shortly:
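Mortality of second instar larvae exposed to diet coated with 50 μg/cm^2 compound (acetone-water 90:10 vehicle, dried); 25° C., 5–7 days.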

[3] abbreviates: Species BAW (Beet Armyworm), read-out: BAW (Biological Results, rating).
Setting [4] is: Species CL (Cabbage Looper), read-out: CL (Biological Results, rating).
Setting [5] is: Beet Armyworm, 128-well diet tray assay, read-out: BAW rating.
Where [6] appears, read: Cabbage Looper, 128-well diet tray assay, read-out: CL rating.

Molecules are shown by their SMILES. Like-named read-outs stand apart in the source and are kept apart here.

Take `O=C(Nc1ccc(F)cc1)c1cccc(NC(=O)[C@H]2[C@H](c3cc(Cl)cc(Cl)c3)C2(Cl)Cl)n1` (relative stereo) [F133, trans-6-(2,2-Dichloro-3-(3,5-dichlorophenyl)cyclopropane-1-carboxamido)-N-(4-fluorophenyl)picolinamide]: the pest or weed control at 50 µg/cm2 in assay [1] (setting [3]) and in assay [2] (setting [4]) was 50 to 100% throughout.

Regarding `Cc1cc(N)ccc1NC(=O)c1cc(NC(=O)[C@H]2[C@H](c3ccc(Cl)c(Br)c3)C2(Cl)Cl)ccc1Cl` (relative stereo) [F336, N-(4-Amino-2-methylphenyl)-5-(trans-3-(3-bromo-4-chlorophenyl)-2,2-dichlorocyclopropane-1-carboxamido)-2-chlorobenzamide], the pest or weed control at 50 µg/cm2 in assay [1] (setting [3]) and in assay [2] (setting [4]) was 50 to 100% in each case.

As for `Cc1cc(N(C)C(=O)OC(C)(C)C)ccc1NC(=O)c1cc(NC(=O)[C@H]2[C@H](c3cc(Cl)c(Cl)c(Cl)c3)C2(Cl)Cl)ccc1Cl` (relative stereo) [F218, trans-tert-Butyl-(4-(2-chloro-5-(2,2-dichloro-3-(3,4,5-trichlorophenyl)cyclopropane-1-carboxamido)benzamido)-3-methylphenyl)(methyl)carbamate], the pest or weed control at 50 µg/cm2 in assay [1] (setting [3]) and in assay [2] (setting [4]) was 50 to 100% each time.

As for `N#CSc1ccc(NC(=O)c2cc(NC(=O)[C@H]3[C@H](c4cc(Cl)cc(Cl)c4)C3(Cl)Cl)ccc2Cl)cc1` (relative stereo) [PF45, trans-2-Chloro-5-(2,2-dichloro-3-(3,5-dichlorophenyl)cyclopropane-1-carboxamido)-N-(4-thiocyanatophenyl)benzamide], the pest or weed control at 50 µg/cm2 in assay [1] (setting [5]) and in assay [2] (setting [6]) was 50 to 100% in each case.

Consider `CN(C(=O)OC(C)(C)C)c1cc(NC(=O)c2cc(NC(=O)[C@H]3[C@H](c4cc(Cl)cc(Cl)c4)C3(Cl)Cl)ccc2Cl)ccc1F` (relative stereo) [F471, trans-tert-Butyl (5-(2-chloro-5-(2,2-dichloro-3-(3,5-dichlorophenyl)cyclopropane-1-carboxamido)benzamido)-2-fluorophenyl)(methyl)carbamate], for which the pest or weed control at 50 µg/cm2 in assay [1] (setting [5]) and in assay [2] (setting [6]) was 50 to 100% in each case.

As for `Cc1c(F)ccc(NC(=O)c2cc(NC(=O)[C@H]3[C@H](c4cc(Cl)cc(Cl)c4)C3(Cl)Cl)ccc2Cl)c1F` (relative stereo) [PF55, trans-2-Chloro-5-(2,2-dichloro-3-(3,5-dichlorophenyl)cyclopropane-1-carboxamido)-N-(2,4-difluoro-3-methylphenyl)benzamide], the pest or weed control at 50 µg/cm2 in assay [1] (setting [5]) and in assay [2] (setting [6]) was 50 to 100% in each case.

As to `O=C(Nc1ccc(F)cc1)c1cc(NC(=O)C2C(c3cc(Cl)cc(Cl)c3)C2(Cl)Cl)ccc1Cl` (stereo not drawn) [F629, 2-Chloro-5-(2,2-dichloro-3-cis-(3,5-dichlorophenyl)cyclopropane-1-carboxamido)-N-(4-fluorophenyl)benzamide], the pest or weed control at 50 µg/cm2 in assay [1] (setting [5]) and in assay [2] (setting [6]) was 50 to 100% throughout.

As for `CC(C)(C)CC(=O)Nc1ccc(NC(=O)c2cc(NC(=O)[C@H]3[C@H](c4cc(Cl)cc(Cl)c4)C3(Cl)Cl)ccc2Cl)cc1` (relative stereo) [PF164, trans-2-Chloro-5-(2,2-dichloro-3-(3,5-dichlorophenyl)cyclopropane-1-carboxamido)-N-(4-(3,3-dimethylbutanamido)phenyl)benzamide], the pest or weed control at 50 µg/cm2 in assay [1] (setting [5]) and in assay [2] (setting [6]) was 50 to 100% each time.

Turning to `N#Cc1cc(F)ccc1NC(=O)c1cc(NC(=O)[C@H]2[C@H](c3cc(Cl)c(Cl)c(Cl)c3)C2(Cl)Cl)ccc1Cl` (relative stereo) [F191, trans-2-Chloro-N-(2-cyano-4-fluorophenyl)-5-(2,2-dichloro-3-(3,4,5-trichlorophenyl)cyclopropane-1-carboxamido)benzamide], the pest or weed control at 50 µg/cm2 in assay [1] (setting [3]) and in assay [2] (setting [4]) was 50 to 100% in each case.

As to `CC(C)(C)OC(=O)N(C(=O)OC(C)(C)C)c1c(F)ccc(NC(=O)c2cc(NC(=O)[C@H]3[C@H](c4ccc(Cl)c(Cl)c4)C3(Cl)Cl)ccc2Cl)c1F` [F500, tert-Butyl-N-((tert-butoxy)carbonyl)-N-(3-(2-chloro-5-((1R,3R)-2,2-dichloro-3-(3,4-dichlorophenyl)cyclopropane-1-carboxamido)benzamido)-2,6-difluorophenyl)carbamate], the values for the pest or weed control at 50 µg/cm2 in assay [1] (setting [5]) and in assay [2] (setting [6]) were 50 to 100% and 0 to 50%, respectively.

As for `CNc1ccc(N(C)C(=O)c2cc(NC(=O)[C@H]3[C@H](c4cc(Cl)cc(Cl)c4)C3(Cl)Cl)ccc2Cl)c(C)c1` (relative stereo) [F225, trans-2-Chloro-5-(2,2-dichloro-3-(3,5-dichlorophenyl)cyclopropane-1-carboxamido)-N-methyl-N-(2-methyl-4-(methylamino)phenyl)benzamide], the pest or weed control at 50 µg/cm2 in assay [1] (setting [3]) and in assay [2] (setting [4]) was 50 to 100% throughout.

`O=C(Nc1ccc(F)cc1)c1cc(NC(=O)[C@H]2[C@H](c3cc(Cl)cc(Cl)c3)C2(Cl)Cl)c(F)cc1Cl` (relative stereo) [F48, trans-2-Chloro-5-(2,2-dichloro-3-(3,5-dichlorophenyl)cyclopropane-1-carboxamido)-4-fluoro-N-(4-fluorophenyl)benzamide]: the pest or weed control at 50 µg/cm2 in assay [1] (setting [3]) and in assay [2] (setting [4]) was 50 to 100% throughout.

Consider `Cc1cc([C@H]2[C@H](C(=O)Nc3ccc(Cl)c(C(=O)Nc4c(F)cccc4F)c3)C2(Cl)Cl)cc(Cl)c1Cl` (relative stereo) [F125, trans-2-Chloro-5-(2,2-dichloro-3-(3,4-dichloro-5-methylphenyl)cyclopropane-1-carboxamido)-N-(2,6-difluorophenyl)benzamide], for which the pest or weed control at 50 µg/cm2 in assay [1] (setting [3]) and in assay [2] (setting [4]) was 50 to 100% throughout.

As for `Nc1c(F)ccc(NC(=O)c2cc(NC(=O)C3C(c4cc(F)c(F)c(F)c4)C3(Cl)Cl)ccc2Cl)c1F` (stereo not drawn) [F627, N-(3-Amino-2,4-difluorophenyl)-2-chloro-5-(2,2-dichloro-3-trans-(3,4,5-trifluorophenyl)cyclopropane-1-carboxamido)benzamide], the pest or weed control at 50 µg/cm2 in assay [1] (setting [5]) and in assay [2] (setting [6]) was 50 to 100% in each case.

As to `O=C(Nc1ccc2c(c1)C(=O)NC2=O)c1cc(NC(=O)[C@H]2[C@H](c3cc(Cl)cc(Cl)c3)C2(Cl)Cl)ccc1Cl` (relative stereo) [F439, trans-2-Chloro-5-(2,2-dichloro-3-(3,5-dichlorophenyl)cyclopropane-1-carboxamido)-N-(1,3-dioxoisoindolin-5-yl)benzamide], the pest or weed control at 50 µg/cm2 in assay [1] (setting [5]) and in assay [2] (setting [6]) was 50 to 100% each time.

`Cc1cc(N(C)C(=O)OC(C)(C)C)ccc1N(C)C(=O)c1cc(NC(=O)[C@H]2[C@H](c3cc(Cl)cc(Cl)c3)C2(Cl)Cl)ccc1Cl` (relative stereo) [F220, trans-tert-Butyl-(4-(2-chloro-5-(2,2-dichloro-3-(3,5-dichlorophenyl)cyclopropane-1-carboxamido)-N-methylbenzamido)-3-methylphenyl)(methyl)carbamate]: the pest or weed control at 50 µg/cm2 in assay [1] (setting [3]) and in assay [2] (setting [4]) was 50 to 100% throughout.

On to `CC(C)(C)OC(=O)n1ccc2cc(NC(=O)c3cc(NC(=O)[C@H]4[C@H](c5cc(Cl)cc(Cl)c5)C4(Cl)Cl)ccc3Cl)ccc21` (relative stereo) [F484, tert-Butyl 5-(2-chloro-5-(trans)-(2,2-dichloro-3-(3,5-dichlorophenyl)cyclopropane-1-carboxamido)benzamido)-1H-indole-1-carboxylate], for which the pest or weed control at 50 µg/cm2 in assay [1] (setting [5]) and in assay [2] (setting [6]) was 50 to 100% throughout.

Take `O=C(Nc1nc2ccc(F)cc2[nH]1)c1cc(NC(=O)C2C(c3cc(Cl)cc(Cl)c3)C2(Cl)Cl)ccc1Cl` (stereo not drawn) [F451, 2-Chloro-5-(trans)-2,2-dichloro-3-(3,5-dichlorophenyl)cyclopropane-1-carboxamido)-N-(6-fluoro-1H-benzo[d]imidazol-2-yl)benzamide]: the pest or weed control at 50 µg/cm2 in assay [1] (setting [5]) and in assay [2] (setting [6]) was 50 to 100% throughout.

For `CS(=O)(=O)c1ccc(NC(=O)c2cc(NC(=O)[C@H]3[C@H](c4cc(Cl)cc(Cl)c4)C3(Cl)Cl)ccc2Cl)cc1` (relative stereo) [F143, trans-2-Chloro-5-(2,2-dichloro-3-(3,5-dichlorophenyl)cyclopropane-1-carboxamido)-N-(4-(methylsulfonyl)phenyl)benzamide], the pest or weed control at 50 µg/cm2 in assay [1] (setting [3]) and in assay [2] (setting [4]) was 50 to 100% each time.

Turning to `CN(C(=O)c1cc(NC(=O)[C@H]2[C@H](c3cc(F)cc(Cl)c3)C2(Cl)Cl)ccc1Cl)c1ccc(F)cc1` (relative stereo) [PF2, trans-2-Chloro-5-(2,2-dichloro-3-(3-chloro-5-fluorophenyl)cyclopropane-1-carboxamido)-N-(4-fluorophenyl)-N-methylbenzamide], the pest or weed control at 50 µg/cm2 in assay [1] (setting [5]) and in assay [2] (setting [6]) was 50 to 100% each time.

For `O=C(Nc1ccc(-c2ncco2)cc1)c1cc(NC(=O)[C@H]2[C@H](c3cc(Cl)cc(Cl)c3)C2(Cl)Cl)ccc1Cl` (relative stereo) [F446, trans-2-Chloro-5-(2,2-dichloro-3-(3,5-dichlorophenyl)cyclopropane-1-carboxamido)-N-(4-(oxazol-2-yl)phenyl)benzamide], the pest or weed control at 50 µg/cm2 in assay [1] (setting [5]) and in assay [2] (setting [6]) was 50 to 100% throughout.

(Values after patent US10219516B2, “Molecules having pesticidal utility, and intermediates, compositions, and processes, related thereto” (priority 2015, dated 2019).)
